{"source": "patent US12163169B2", "about": "“Inducible chimeric cytokine receptors” (Allogene Therapeutics, Inc., priority 2018, dated 2024)", "key": {"[1]": {"target": "FKBP12 containing the F36V mutation (Homo sapiens, UniProt P62942, F37V)", "sequence (P62942 2-108 F37V)": "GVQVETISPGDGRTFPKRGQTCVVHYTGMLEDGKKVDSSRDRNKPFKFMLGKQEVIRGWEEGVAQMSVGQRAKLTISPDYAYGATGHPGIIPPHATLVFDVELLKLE", "conditions": "literature (Jemal 2008; Scher and Kelly 1993); cited from earlier work"}, "CAR T cells [2]": {"tested_on": "CAR T cells", "assay": "Target-independent AP1903-driven CAR T cell expansion, 2-week culture (Example 11)", "assay_type": "cell-based, human", "conditions": "FKBP switch CAR T cells, IL7R(316-459)/IL12Rb2(775-825) cytotails; reference IL-7 and IL-12p70 10 ng/mL each; 2 weeks", "experimental": "Control CAR T cells or FKBP switch CAR T cells bearing IL7R(316-459)/IL12Rb2(775-825) cytotails were cultured with the indicated concentrations of AP1903, and in the absence of exogenous cytokines (unless specified in the case of positive controls) or target cells for 2 weeks. As a positive control, CAR T cells were alternatively supplemented with exogenous recombinant IL-7 (10 ng/mL; Miltenyi) and IL-12p70 (10 ng/mL; Biolegend) to mimic the dual IL-7R/IL12Rb2 outputs transmitted by FKBP switch activation. At the end of the 2-week culture, the number and quality of surviving CAR T cells were determined. Briefly, duplicate samples from each culture condition cells were harvested and stained using the Zombie NIR Fixable Viability Kit (Biolegend). Samples were washed with PBS, Fc blocked, then stained with the following antibody cocktail diluted in PBS+1% BSA: BUV395-conjugated anti-human CD3, BV510-conjugated anti-human CD8, BV605-conjugated human CD4 and FITC-conjugated v5 tag (for CAR detection), PE/Cy7-conjugated anti-human CD62L (Biolegend) and BV785-conjugated anti-human CD45RO (Biolegend). Finally, samples were washed in PBS and cell pellets were resuspended in 130 uL PBS+1% BSA containing 123count eBeads counting beads (Thermo Fisher) (10 uL counting beads in 120 uL PBS+1% BSA) prior to FACS analysis."}, "[3]": {"target": "T1, BCMA ectodomain cytokine receptor (Homo sapiens, UniProt Q02223)", "T1 construct": "such as BCMA(1-54), TACI(1-165) and BAFFR(1-78); expressed in transfected cells; host or cells: HEK293T", "T1 sequence (Q02223 1-54)": "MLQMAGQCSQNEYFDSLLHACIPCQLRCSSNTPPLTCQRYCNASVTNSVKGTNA", "assay": "HEK293T Stat reporter assay of BCMA ectodomain cytokine receptor with soluble APRIL trimers (Example 14)", "assay_type": "cell-based", "conditions": "5 hours post-treatment; FIGS. 37C-37D", "from_the_text": "To test if the panel of ligand inducers and ectodomains can be further extended beyond the AP1903-FKBP(F36V) pairing, we tested signaling in response to other multimeric ligand inducers. As the Tumor Necrosis Family (TNF) superfamily of ligands are trimers, they engage their respective receptors in a multimeric fashion. Therefore, we fused ectodomains derived from the TNFR2 superfamily receptors, such as BCMA(1-54), TACI(1-165) and BAFFR(1-78), to the transmembrane and signaling domains of our chimeric cytokine receptors, and tested signaling in response to soluble trimeric ligand. Briefly, 20,000 HEK293T cells were plated into each well of a poly-L-lysine-coated 96-well flat-bottom plate and allowed to adhere overnight. The chimeric cytokine receptor (2.5 ng), a Stat response element that drives Firefly Luciferase (100 ng; Promega) and Renilla Luciferase control reporter vector (1 ng; Promega) were mixed in a final volume of 5 uL in Opti-MEM (Gibco) (“DNA mix”). 0.3 uL Lipofectamine 2000 (Invitrogen) in 5 uL Opti-MEM was incubated at room temperature for 5 minutes and then added to the DNA mix. […] 24 hours after transfection, cells were either left untreated, or treated with soluble BAFF or APRIL trimers diluted in serum-free media, and Stat reporter activity was determined 5 hours post-treatment using the Dual-Glo Luciferase Assay System (Promega). […]"}, "CAR T cells [4]": {"tested_on": "CAR T cells", "assay": "Cytokine release (MSD assay) on Day 5 of the AP1903-driven growth assay (Example 16B)", "assay_type": "cell-based", "conditions": "500 ng/ml of AP1903; FIGS. 42A-42B", "experimental": "To test whether different cytotail outputs influenced the memory differentiation and long-term survival of CAR T cells, we performed an AP1903-driven growth assay. CAR T cells bearing the indicated chimeric receptors were thawed and the percentages of CAR+ cells were normalized to the sample with the lowest transduction efficiency (i.e. 20% CAR+) by adding non-transduced T cells. Cells were either left untreated, or treated with 500 ng/ml of AP1903, and in the absence of exogenous cytokines (unless specified in the case of positive controls) or target cells for 2 weeks. […] On Day 5 of the AP1903-driven growth assay, supernatents were sampled for the analysis of cytokine release using the MSD assay (Meso Scale Discovery). At the end of the 2-week culture, the memory and exhaustion phenotypes of surviving CAR T cells were determined. Briefly, duplicate samples from each culture condition cells were harvested and stained using the Zombie NIR Fixable Viability Kit (Biolegend). […]"}, "CAR T cells [5]": {"tested_on": "CAR T cells", "assay": "Cytokine release (MSD assay) at the end of the 4-day cytotoxicity assay (Example 16B)", "assay_type": "cell-based", "experimental": "(§1) To test whether different cytotail outputs influenced the effector function of CAR T cells, we performed a 4-day in vitro cytotoxicity assay. Briefly, 30,000 U87KO-EGFRvIII-nucRFP target cells were seeded and allowed to attach in 96-well plates with black walls and flat clear bottom in 50 uL RPMI containing 10% FBS (Hyclone), non-essential amino acids, sodium pyruvate and 20-25 mM HEPES. U87KO-EGFRvIII is a kind gift from Cellectis SA (Paris, France). U87KO-EGFRvIII was derived from the parental cell line, U87MG (ATCC), by first knocking out endogenous wildtype EGFR using Transcription Activator-Like Effector Nucleases (TALEN), and then stably overexpressing full-length human EGFRvIII via lentiviral transduction. To facilitate target cell imaging via the IncuCyte Live Cell Analysis Imaging System, U87KO-EGFRvIII-nucRFP target cells were derived from U87KO-EGFRvIII by a second lentiviral transduction with IncuCyte NucLight Red Lentivirus Reagent (Sartorius). EGFRvIII CAR (2173 scFv) T cells bearing an FKBP switch with the respective cytotails were thawed and added to plated target cells at an Effector:Target (E:T) ratio of 1:8. As a comparison, CAR T cells coexpressing FKBP-MyD88-CD40 were included. […] The number of live target cells at each timepoint was determined by enumerating the number of live nuclearRFP+ cells using the Incucyte Live Cell Analysis Imaging System. […]"}, "[6]": {"tested_on": "U87KO-EGFRvIII-nucRFP target cells", "assay": "4-day in vitro cytotoxicity assay against U87KO-EGFRvIII-nucRFP target cells (Example 16B)", "assay_type": "cell-based", "conditions": "EGFRvIII CAR (2173 scFv); E:T 1:8; 500 ng/ml AP1903; 4 days; FIGS. 40A-40F", "experimental": "as §1"}, "STAT4": {"tested_on": "STAT4", "assay": "HEK293T transcription factor reporter assay of cytotails (Example 16A), Stat4", "assay_type": "cell-based", "conditions": "1 ug/mL AP1903, 6 hours; FIG. 39B", "experimental": "To test the signaling pathways activated by different cytotails, we utilized a HEK293T cell reporter assay. Briefly, 20,000 HEK293T cells were plated into each well of a poly-L-lysine-coated 96-well flat-bottom plate and allowed to adhere overnight. An inducible cytokine receptor (2.5 ng), the respective transcription factor response element that drives Firefly Luciferase (100 ng; Promega) and a Renilla Luciferase control reporter vector (1 ng; Promega) were mixed in a final volume of 5 uL in Opti-MEM (Gibco) (“DNA mix”). 0.3 uL Lipofectamine 2000 (Invitrogen) in 5 uL Opti-MEM was incubated at room temperature for 5 minutes and then added to the DNA mix. The mixture was incubated at room temperature for 20 minutes and the total volume of 10 uL was added to each well containing HEK-293T. As a negative control, the FKBP ectodomain was coupled to the transmembrane and short intracellular region of TpoR(478-528) that lacked the JAK-binding domain and cytotail (i.e. TpoR CTRL). As a comparison, the FKBP ectodomain was coupled to the MyD88/CD40 signaling domains (henceforth referred to as “FKBP-MyD88-CD40”). 24 hours after transfection, cells were either left untreated, or treated with 1 ug/mL AP1903 (Apex Bio) diluted in serum-free media. 6 hours after AP1903 treatment, reporter activity was determined using the Dual-Glo Luciferase Assay System (Promega). […]"}, "CAR T cells [7]": {"tested_on": "CAR T cells", "assay": "AP1903-driven growth assay: enrichment, memory and exhaustion phenotype of CAR T cells (Example 16B)", "assay_type": "cell-based", "conditions": "2 weeks; exogenous recombinant cytokine 10 ng/mL; 20% CAR+ seeded; FIG. 43", "procedure": "To test whether different cytotail outputs influenced the memory differentiation and long-term survival of CAR T cells, we performed an AP1903-driven growth assay. CAR T cells bearing the indicated chimeric receptors were thawed and the percentages of CAR+ cells were normalized to the sample with the lowest transduction efficiency (i.e. 20% CAR+) by adding non-transduced T cells. Cells were either left untreated, or treated with 500 ng/ml of AP1903, and in the absence of exogenous cytokines (unless specified in the case of positive controls) or target cells for 2 weeks. As positive controls, CAR T cells were alternatively supplemented with either exogenous recombinant IL-7 or IL-2 (10 ng/mL each; Miltenyi). […] At the end of the 2-week culture, the memory and exhaustion phenotypes of surviving CAR T cells were determined. Briefly, duplicate samples from each culture condition cells were harvested and stained using the Zombie NIR Fixable Viability Kit (Biolegend). […]"}}, "note": "Entries after “also recorded” stand apart in the source; their conditions may differ. Ends that are not written are not given here."}
{"molecule": "CC[C@H](C(=O)N1CCCC[C@H]1C(=O)O[C@H](CCc1ccc(OC)c(OC)c1)c1cccc(OCC(=O)NCCNC(=O)COc2cccc([C@@H](CCc3ccc(OC)c(OC)c3)OC(=O)[C@@H]3CCCCN3C(=O)[C@@H](CC)c3cc(OC)c(OC)c(OC)c3)c2)c1)c1cc(OC)c(OC)c(OC)c1", "note": "[AP1903]", "values": [{"measurement": "binding affinity to FKBP12 containing the F36V mutation", "setting": "[1]", "value": "high affinity; also recorded: much higher affinity than wild-type FKBP12"}, {"measurement": "AP1903 concentration sufficient to reach the level of expansion achieved by exogenous cytokine supplementation", "setting": "CAR T cells [2]", "value": "≤ 1", "unit": "ng/mL"}]}
{"molecule": "APRIL: soluble APRIL trimers, TNF superfamily ligand", "values": [{"measurement": "downstream Stat activation", "setting": "[3]", "value": "induced downstream Stat activation"}]}
{"molecule": "IL12Rb2small(775-825): FKBP switch (Example 16) bearing the IL12Rb2small(775-825) cytotail (SDPKPENPACPWTVLPAGDLPTHDGYLPSNIDDLPSHEAPLADSLEELEPQ; also: FKBP switch fusion; UniProt Q99665 775-825, looked up, fragment)", "values": [{"measurement": "cytokine release on Day 5 of AP1903-driven growth", "setting": "CAR T cells [4]", "value": "secrete elevated amounts of pro-inflammatory cytokines"}, {"measurement": "IL-10 secretion", "setting": "CAR T cells [5]; AP1903, FIG. 41A", "value": "increased IL-10 secretion"}, {"measurement": "pro-inflammatory cytokine release in the presence of AP1903", "setting": "CAR T cells [5]; IL-17A/F, IL-21, TNFa and IFNg, FIG. 41A", "value": "released elevated amounts of pro-inflammatory cytokines"}, {"measurement": "CAR T cell cytotoxicity in the presence of AP1903", "setting": "[6]", "value": "enhances CART cell cytotoxic potency"}, {"measurement": "Stat4 reporter activation", "setting": "STAT4", "value": "activating Stat4"}]}
{"molecule": "IL-7: exogenous recombinant IL-7 (Miltenyi), positive control (protein, UniProt P13232 26-177, looked up) Interleukin-7: DCDIEGKDGKQYESVLMVSIDQLLDSMKEIGSNCLNNEFNFFKRHICDANKEGMFLFRAARKLRQFLKMNSTGDFDLHLLKVSEGTTILLNCTGQVKGRKPAALGEAQPTKSLEENKSLKEQKKLNDLCFLKRLLQEIKTCWNKILMGTKEH", "values": [{"measurement": "percentage of CAR+ cells", "setting": "CAR T cells [7]", "value": "~20", "unit": "%"}]}
